# Where two headings read alike, the source gives them in different places.
# What was measured:
# S. aureus ATCC 29213 [1] = experiment: MIC and MBC determination; assay type: cell-based; conditions: S. aureus
# E. faecalis ATCC 29212 [2] = experiment: MIC and MBC determination; assay type: cell-based; conditions: Enterococcus faecalis, ATCC29212, E. faecalis
# B. subtilis ATCC 6633 = experiment: MIC and MBC determination; assay type: cell-based; conditions: B. subtilis
# [3] = tested on: F. oxysporum (RCMB 008002); experiment: Inhibition zone, paper disk/agar diffusion; assay type: cell-based; conditions: Na = no activity; further: test concentration or dose not given here
# Summary of the method: (§1)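 Values are inhibition zone diameters in millimetres. These were measured after applying the derivatives to agar plates by diffusion, and norfloxacin served as the reference drug.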
# S. aureus ATCC 29213 [4] = experiment: Inhibition zone, paper disk/agar diffusion; further: test concentration or dose not given here; assay type: cell-based; conditions: S. aureus; Na = no activity
# Summary of the method: as §1
# E. faecalis ATCC 29212 [5] = experiment: Inhibition zone, paper disk/agar diffusion; further: test concentration or dose not given here; assay type: cell-based; conditions: E. faecalis; Na = no activity
# Summary of the method: as §1
# S. typhi ATCC 6539 = experiment: Inhibition zone, paper disk/agar diffusion; assay type: cell-based; conditions: S. typhi; Na = no activity
# Summary of the method: as §1
# P. aeruginosa ATCC 27853 [6] = experiment: Inhibition zone, paper disk/agar diffusion; assay type: cell-based; conditions: P. aeruginosa; Na = no activity
# Summary of the method: as §1
# E. coli ATCC 25922 = experiment: Inhibition zone, paper disk/agar diffusion; assay type: cell-based; conditions: E. coli; Na = no activity
# Summary of the method: as §1
# C. albicans (ATCC 10231) = experiment: Inhibition zone, paper disk/agar diffusion; assay type: cell-based; conditions: Na = no activity
# Summary of the method: as §1
# spleen and thymus = experiment: In vivo immunomodulation: immune organ weight and indexes; set-up: Spleen index: unit not given here; conditions: mice
# Source text: Both the spleen and thymus have important antibacterial and fungal immune organ responses, and any change in weight, and indexes can reflect the level of immune regulation. Additionally, the relative spleen and thymus indexes are important indices for nonspecific immunity and potential immunomodulatory compounds that increase the spleen and thymus weight. This increase is due to immune cells’ stimulation in the spleen and thymus. […]
# [7] = tested on: F. oxysporum (RCMB 008002); experiment: MIC and MFC determination; assay type: cell-based
# MDRB strains = experiment: MIC and MBC, ranges over the MDRB panel; assay type: cell-based; conditions: four MDRB strains
# Source text: (§2) Norfloxacin was used as a positive control for the multidrug resistance study.
# (§3) The experiment was repeating for three-times.
# neutrophils = experiment: In vitro intracellular killing, nitro blue tetrazolium (NBT) reduction assay; assay type: cell-based
# Procedure: One of the broad methods used for determining immune disorders for patients in hospitals is the NBT test to measure their immune responses. The reduction in NBT dye provides information about the phagocytic and intracellular killing functions of neutrophils, which are important for microbiocidal activity. The most promising derivatives (2a, 2b, 2d, 3a, 8, and 11) were evaluated against in vitro intracellular killing activities using a nitro blue tetrazolium (NBT) reduction assay and the obtained results expressed in percentage (%): increasing the percentage led to an improvement in the killing ability of the neutrophils used as innate immunity.
# In vitro intracellular killing activities for the most promising six derivatives 2a, 2b, 2d, 3a, 8, and 11 were performed according to reported methods.
# [8] = tested on: Salmonella typhi (S. typhi ATCC 6539); experiment: microbe, parasite or virus in culture; assay type: cell-based; conditions: Salmonella enterica, Salmonella typhi
# S. aureus ATCC 33591 [9] = experiment: MIC and MBC against multidrug-resistant strains; assay type: cell-based; conditions: Staphylococcus aureus, ATCC33591, S. aureus ATCC 33591
# Source text: as §2, §3
# S. aureus ATCC 43300 [10] = experiment: MIC and MBC against multidrug-resistant strains; assay type: cell-based; conditions: Staphylococcus aureus, ATCC43300, S. aureus ATCC 43300
# Source text: as §2, §3
# E. coli ATCC BAA-196 [11] = experiment: MIC and MBC against multidrug-resistant strains; assay type: cell-based; conditions: E. coli ATCC BAA-196
# Source text: as §2, §3
# [12] = tested on: P. aeruginosa ATCC BAA-2111; experiment: MIC and MBC against multidrug-resistant strains; assay type: cell-based; conditions: P. aeruginosa ATCC BAA-2111
# Source text: as §2, §3
# S. aureus ATCC 33591 [13] = experiment: Inhibition zone against multidrug-resistant bacteria; further: test concentration or dose not given here; assay type: cell-based; conditions: MDRB S. aureus ATCC 33591
# Summary of the method: as §1
# S. aureus ATCC 43300 [14] = experiment: as above; assay type: cell-based; conditions: MDRB S. aureus ATCC 43300
# Summary of the method: as §1
# E. coli ATCC BAA-196 [15] = experiment: as above; assay type: cell-based; conditions: MDRB E. coli ATCC BAA-196
# Summary of the method: as §1
# [16] = tested on: P. aeruginosa ATCC BAA-2111; experiment: as above; assay type: cell-based; conditions: MDRB P. aeruginosa ATCC BAA-2111
# Summary of the method: as §1
# S. aureus DNA gyrase = S. aureus DNA gyrase (Staphylococcus aureus, UniProt P0A0K8+P20831); experiment: In vitro DNA gyrase supercoiling enzymatic assay; assay type: biochemical
# Chain of S. aureus DNA gyrase (P20831 whole entry): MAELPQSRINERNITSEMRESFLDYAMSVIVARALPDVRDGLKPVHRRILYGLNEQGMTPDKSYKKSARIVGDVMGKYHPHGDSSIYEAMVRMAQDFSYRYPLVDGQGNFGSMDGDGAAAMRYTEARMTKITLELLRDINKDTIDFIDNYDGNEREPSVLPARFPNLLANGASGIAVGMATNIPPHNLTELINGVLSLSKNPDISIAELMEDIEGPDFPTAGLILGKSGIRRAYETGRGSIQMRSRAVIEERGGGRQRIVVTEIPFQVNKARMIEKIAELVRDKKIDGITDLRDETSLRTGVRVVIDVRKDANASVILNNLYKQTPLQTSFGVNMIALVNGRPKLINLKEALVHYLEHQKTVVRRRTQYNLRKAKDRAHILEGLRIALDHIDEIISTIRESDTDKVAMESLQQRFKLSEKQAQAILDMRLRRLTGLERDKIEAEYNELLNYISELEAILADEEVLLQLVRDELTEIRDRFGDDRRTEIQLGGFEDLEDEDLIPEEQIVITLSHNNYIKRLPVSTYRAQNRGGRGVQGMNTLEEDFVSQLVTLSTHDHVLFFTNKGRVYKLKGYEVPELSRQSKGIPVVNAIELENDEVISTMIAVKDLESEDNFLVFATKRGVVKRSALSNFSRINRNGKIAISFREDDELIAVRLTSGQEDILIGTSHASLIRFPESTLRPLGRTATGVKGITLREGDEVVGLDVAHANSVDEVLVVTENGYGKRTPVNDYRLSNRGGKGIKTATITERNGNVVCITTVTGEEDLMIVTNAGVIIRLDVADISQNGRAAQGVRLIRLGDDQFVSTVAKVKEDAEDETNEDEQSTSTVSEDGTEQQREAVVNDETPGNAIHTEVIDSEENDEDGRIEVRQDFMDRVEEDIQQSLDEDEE
# Chain of S. aureus DNA gyrase (P0A0K8 whole entry): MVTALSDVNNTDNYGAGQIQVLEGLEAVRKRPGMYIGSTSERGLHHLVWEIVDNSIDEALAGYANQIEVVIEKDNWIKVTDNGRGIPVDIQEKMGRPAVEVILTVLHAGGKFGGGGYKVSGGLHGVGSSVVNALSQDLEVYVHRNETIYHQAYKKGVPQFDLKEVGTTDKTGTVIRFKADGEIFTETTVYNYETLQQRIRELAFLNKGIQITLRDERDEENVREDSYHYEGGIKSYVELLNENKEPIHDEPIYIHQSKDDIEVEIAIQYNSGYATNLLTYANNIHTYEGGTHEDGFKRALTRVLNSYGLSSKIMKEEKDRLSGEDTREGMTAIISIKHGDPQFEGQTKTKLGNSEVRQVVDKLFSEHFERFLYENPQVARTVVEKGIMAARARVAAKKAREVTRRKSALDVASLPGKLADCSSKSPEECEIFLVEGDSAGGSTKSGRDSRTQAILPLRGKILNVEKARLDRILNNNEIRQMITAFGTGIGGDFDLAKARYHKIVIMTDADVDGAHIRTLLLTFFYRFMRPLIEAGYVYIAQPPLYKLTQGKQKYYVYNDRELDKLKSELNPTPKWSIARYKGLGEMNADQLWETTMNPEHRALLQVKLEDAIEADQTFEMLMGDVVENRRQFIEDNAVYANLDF
# [17] = target: E. coli DHFR (dihydrofolate reductase) (Escherichia coli, UniProt P0ABQ4); experiment: In vitro DHFR enzymatic assay; assay type: biochemical
# Chain of E. coli DHFR (dihydrofolate reductase) (P0ABQ4 whole entry): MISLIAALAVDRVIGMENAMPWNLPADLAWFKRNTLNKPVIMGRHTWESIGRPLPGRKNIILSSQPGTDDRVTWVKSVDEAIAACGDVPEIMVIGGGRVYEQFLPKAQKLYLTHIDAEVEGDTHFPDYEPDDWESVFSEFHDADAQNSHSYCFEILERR
# P. aeruginosa ATCC 27853 [18] = experiment: MIC and MBC determination; assay type: cell-based; conditions: Pseudomonas aeruginosa, ATCC27853, P. aeruginosa
# Wherever Mean Diameter of Inhibition Zone is given: test concentration or dose not given here.
compound,measurement,setting,value
"COc1ccc(/C=C(\C#N)C(=O)Nc2ccc(S(=O)(=O)NC(=N)N)cc2)cc1O [Compound 2d, N-(4-(N-Carbamimidoylsulfamoyl)phenyl)-2-cyano-3-(3-hydroxy-4-methoxyphenyl) acryl-amide]",MBC,S. aureus ATCC 29213 [1],13.40 ± 0.54 µM
same,MIC,S. aureus ATCC 29213 [1],13.40 ± 0.98 µM
same,MBC,"S. aureus ATCC 29213 [1]; Staphylococcus aureus, ATCC29213, read-out: MBC",13.4 µM
same,MIC,"S. aureus ATCC 29213 [1]; Staphylococcus aureus, ATCC29213, read-out: MIC",13.4 µM
same,MBC,E. faecalis ATCC 29212 [2]; read-out: MBC,15.9 ± 0.58 µM
same,MIC,E. faecalis ATCC 29212 [2]; read-out: MIC,9.38 ± 0.24 µM
same,MBC,B. subtilis ATCC 6633,9.38 ± 0.96 µM
same,MIC,B. subtilis ATCC 6633,4.69 ± 0.98 µM
same,MBC,"B. subtilis ATCC 6633; Bacillus subtilis, ATCC6633, read-out: MBC",9.38 µM
same,MIC,"B. subtilis ATCC 6633; Bacillus subtilis, ATCC6633, read-out: MIC",4.69 µM
same,Mean Diameter of the Inhibition Zone,[3],22 ± 0.11 mm
same,Mean Diameter of the Inhibition Zone,S. aureus ATCC 29213 [4],33 ± 0.53 mm
same,Mean Diameter of the Inhibition Zone,E. faecalis ATCC 29212 [5],29 ± 0.17 mm
same,Mean Diameter of the Inhibition Zone,S. typhi ATCC 6539,29 ± 0.20 mm
same,Mean Diameter of the Inhibition Zone,P. aeruginosa ATCC 27853 [6],27 ± 0.73 mm
same,Mean Diameter of the Inhibition Zone,E. coli ATCC 25922,30 ± 0.29 mm
same,Mean Diameter of the Inhibition Zone,C. albicans (ATCC 10231),27 ± 0.50 mm
same,Spleen index,spleen and thymus,0.018 ± 0.00
same,Spleen weight,spleen and thymus,250 ± 0.03 mg
same,Thymus index,spleen and thymus,0.532 ± 0.06 mg/g
same,Thymus weight,spleen and thymus,15.56 ± 0.54 mg
same,MFC,[7],66.84 ± 0.85 µM
same,MFC/MIC,[7],<2
same,MIC,[7],37.60 ± 0.25 µM
same,MFC,"[7]; Fusarium oxysporum, RCMB008002, read-out: MFC",66.8 µM
same,MIC,"[7]; Fusarium oxysporum, RCMB008002, read-out: MIC",37.6 µM
same,MBC range,MDRB strains,9.38 to 18.77 µM
same,MIC range,MDRB strains,4.69 to 9.38 µM
same,Intracellular Killing Activity,neutrophils,142.4 ± 0.98%
same,MBC,[8]; read-out: MBC,30.1 ± 0.75 µM
same,MIC,[8]; read-out: MIC,18.8 ± 0.85 µM
same,MBC,S. aureus ATCC 33591 [9]; read-out: MBC,18.8 ± 0.25 µM
same,MIC,S. aureus ATCC 33591 [9]; read-out: MIC,9.38 ± 0.32 µM
same,MBC,S. aureus ATCC 43300 [10]; read-out: MBC,9.38 ± 0.41 µM
same,MIC,S. aureus ATCC 43300 [10]; read-out: MIC,4.69 ± 0.25 µM
same,MBC,E. coli ATCC BAA-196 [11],9.38 ± 0.54 µM
same,MIC,E. coli ATCC BAA-196 [11],4.69 ± 0.36 µM
same,MBC,"E. coli ATCC BAA-196 [11]; Escherichia coli, ATCCBAA196, read-out: MBC",9.38 µM
same,MIC,"E. coli ATCC BAA-196 [11]; Escherichia coli, ATCCBAA196, read-out: MIC",4.69 µM
same,MBC,[12],18.77 ± 0.61 µM
same,MIC,[12],9.38 ± 0.49 µM
same,MBC,"[12]; Pseudomonas aeruginosa, ATCCBAA2111, read-out: MBC",18.8 µM
same,MIC,"[12]; Pseudomonas aeruginosa, ATCCBAA2111, read-out: MIC",9.38 µM
same,Mean Diameter of Inhibition Zone,S. aureus ATCC 33591 [13],24 ± 0.32 mm
same,Mean Diameter of Inhibition Zone,S. aureus ATCC 43300 [14],27 ± 0.3 mm
same,Mean Diameter of Inhibition Zone,E. coli ATCC BAA-196 [15],25 ± 0.86 mm
same,Mean Diameter of Inhibition Zone,[16],26 ± 0.41 mm
same,IC50,S. aureus DNA gyrase,18.2 ± 1.18 µM
same,IC50,[17],4.33 ± 0.18 µM
same,fold relative to trimethoprim,[17]; E. coli DHFR IC50,1.19 fold
same,MBC,P. aeruginosa ATCC 27853 [18]; read-out: MBC,25.5 ± 0.65 µM
same,MIC,P. aeruginosa ATCC 27853 [18]; read-out: MIC,13.4 ± 0.25 µM
